The text below walks through data of PMC8270334, “Design, Sustainable Synthesis and Biological Evaluation of a Novel Dual α2A/5-HT7 Receptor Antagonist with Antidepressant-Like Properties” (Molecules, 2021).

One series relates to Albino Swiss mice. In words: forced swim test. The note with it: ip, 30 min before test. Type of series: in vivo. Here is the method:
Adult male Albino Swiss mice (CD-1, 8 weeks old, 25–30 g: Jagiellonian University Medical College, Krakow, Poland) were used in the study. Animals were housed in groups of 8 in a transparent plastic cage (382 × 220 × 150 mm) at room temperature (22 ± 2 °C), on a 12 h light/dark cycle with ad libitum access to food and water. Mice were handled for one week before starting the experimental procedures. The separate groups of animals were used in the forced swim test and in the locomotor studies. All studies were approved by the Institutional Animal Care and Ethics Committee of the Jagiellonian University (approval no.: 80/2015). […] Tested compounds were dissolved with 1% Tween 80. […] The control animals were given ip injections of the 2% DMSO in 1% Tween 80 (vehicle). The volume of vehicle or drug solutions was 10 mL/kg. The experiment was performed on mice according to the method previously described. Mice were forced to swim individually in the glass cylinders (height 25 cm, diameter 10 cm) filled with water at 24 ± 1 °C to a depth of 10 cm and left there for 6 min. Following a 2 min habituation period, total time spent immobile was recorded over the next 4 min. The animal was regarded as immobile when it remained floating passively in the water, making only small movements to keep its head above the water.
For the compound `CN1CCN2c3ncccc3Cc3ccccc3C2C1` (centres unmarked) [Mirtazapine, reference compound], the “active dose in FST (antidepressant-like effect)” value came out at 16 mg/kg.

A further series deals with T1, human 5-HT7b receptor (Homo sapiens, UniProt P34969).
T1 construct: expressed in transfected cells; host or cells: HEK293
T1 sequence (P34969 1-432): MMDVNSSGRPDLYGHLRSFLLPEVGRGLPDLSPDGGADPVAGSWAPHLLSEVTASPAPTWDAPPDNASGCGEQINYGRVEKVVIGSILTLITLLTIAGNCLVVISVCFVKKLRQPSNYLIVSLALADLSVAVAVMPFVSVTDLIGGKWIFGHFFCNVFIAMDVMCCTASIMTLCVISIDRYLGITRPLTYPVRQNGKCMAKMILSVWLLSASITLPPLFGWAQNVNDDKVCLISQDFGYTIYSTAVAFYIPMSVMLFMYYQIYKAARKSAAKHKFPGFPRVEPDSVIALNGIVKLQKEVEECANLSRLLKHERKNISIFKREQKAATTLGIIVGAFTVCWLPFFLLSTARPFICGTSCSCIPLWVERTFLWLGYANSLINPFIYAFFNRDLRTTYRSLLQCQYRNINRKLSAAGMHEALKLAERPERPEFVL
Kind of series: radioligand binding, [3H]-5-CT displacement at 5-HT7R in HEK293 cells. The note with it: read-out: Ki [nM] ± SEM 5-HT7. Here is the method:
All experiments were performed using HEK293 cells stably expressing human 5-HT1A, 5-HT6, 5-HT7b, and D2L receptors or CHO-K1 cells with a plasmid containing the human 5-HT2A receptor coding sequence (PerkinElmer, Waltham, MA, USA), according to previously reported procedures. Cells were cultured in 150 cm^2 flasks and, after reaching a 90% confluence, were washed with PBS and the centrifugated (200 g) in PBS containing 0.1 mM EDTA and 1 mM dithiothreitol. Cell pellets were subsequently homogenized (in Ultra Turrax tissue homogenizer) and centrifugated twice (35,000× g for 15 min at 4 °C), with 15 min incubation at 37 °C between the centrifugations. All assays were incubated in dedicated buffers and in a total volume of 200 µL in 96-well microtitre plates for 1 h at 37 °C, except for 5-HT1AR and 5-HT2AR that was incubated for 1 h at room temperature. The process of equilibration is terminated by rapid filtration through Unifilter-96 (PerkinElmer) plates with a 96-well cell harvester and radioactivity retained on the filters was quantified on a Microbeta plate reader (PerkinElmer, USA). For displacement studies, the following assay samples containing the proper radioligand were used: 2.5 nM [^3H]-8-OH-DPAT (PerkinElmer, #NET929001MC) for 5-HT1AR; 1 nM [^3H]-ketanserin (PerkinElmer, #NET791250UC) for 5-HT2AR; 2 nM [^3H]-LSD (PerkinElmer, #NET638250UC) for 5-HT6R; and 0.8 nM [^3H]-5-CT (PerkinElmer, #NET1188U100UC) for 5-HT7R or 2.5 nM [^3H]-raclopride (PerkinElmer, #NET975001MC) for D2LR. Non-specific binding was determined using 10 μM 5-HT for 5-HT1AR and 5-HT7R, 20 μM mianserin for 5-HT2AR, 10 μM methiothepine for 5-HT6R, and 10 μM haloperidol for D2LR. […] Results were expressed as means of at least three separate experiments.
A word on the Ki: it is the equilibrium dissociation constant of an inhibitor or competing ligand from its target. Take `CC1(C)Cc2cccc(OCCN3CCC(NS(=O)(=O)c4cccc(Cl)c4)CC3)c2O1` [Compound 7, 3-Chloro-N-{1-[2-(2,2-dimethyl-2,3-dihydrobenzofuran-7-yloxy)ethyl]piperidin-4-yl}benzenesulfonamide]: the Ki was 64 ± 15 nM.
The same measure, in the same setting: then `COc1ccc(Cl)cc1S(=O)(=O)NC1CCN(CCOc2cccc3c2OC(C)(C)C3)CC1` [Compound 9, 5-Chloro-2-methoxy-N-{1-[2-(2,2-dimethyl-2,3-dihydrobenzofuran-7-yloxy)ethyl]piperidin-4-yl}benzenesulfonamide], with 86 ± 26 nM.
On the same count and under the same terms, then `COc1ccc(OC)c(S(=O)(=O)NC2CCN(CCOc3cccc4c3OC(C)(C)C4)CC2)c1` [Compound 10, 2,5-Dimethoxy-N-{1-[2-(2,2-dimethyl-2,3-dihydrobenzofuran-7-yloxy)ethy]piperidin-4-yl}benzenesulfonamide], with 95 ± 18 nM; and `CC1(C)Cc2cccc(OCCN3CCC(NS(=O)(=O)c4cccc5ccccc45)CC3)c2O1` [Compound 11, 1-Naphthalene-N-{1-[2-(2,2-dimethyl-2,3-dihydrobenzofuran-7-yloxy)ethyl]piperidin-4-yl}sulfonamide], with 50 ± 16 nM; and `CC1(C)Cc2cccc(OCCN3CCC(NS(=O)(=O)c4ccc5ccccc5c4)CC3)c2O1` [Compound 12, 2-Naphthalene-N-{1-[2-(2,2-dimethyl-2,3-dihydrobenzofuran-7-yloxy)ethyl]piperidin-4-yl}sulfonamide], with 67 ± 21 nM.
Take `CC1(C)Cc2cccc(OCCN3CCC(CNS(=O)(=O)c4ccc(F)cc4)CC3)c2O1` [Compound 14, 4-Fluoro-N-({1-[2-(2,2-dimethyl-2,3-dihydrobenzofuran-7-yloxy)ethyl]piperidin-4-yl}methyl)benzenesulfonamide]: the Ki came out at 727 ± 65 nM.
Consider `CC1(C)Cc2cccc(OCCN3CCC(CNS(=O)(=O)c4cccc(Cl)c4)CC3)c2O1` [Compound 15, 3-Chloro-N-({1-[2-(2,2-dimethyl-2,3-dihydrobenzofuran-7-yloxy)ethyl]piperidin-4-yl}methyl)benzenesulfonamide], for which the Ki was 664 ± 82 nM.
The same measure, in the same setting: for `CC1(C)Cc2cccc(OCCN3CCC(CNS(=O)(=O)c4cc(Cl)ccc4F)CC3)c2O1` [Compound 16] the value was 316 ± 73 nM; for `COc1ccc(Cl)cc1S(=O)(=O)NCC1CCN(CCOc2cccc3c2OC(C)(C)C3)CC1` [Compound 17, 5-Chloro-2-methoxy-N-({1-[2-(2,2-dimethyl-2,3-dihydrobenzofuran-7-yloxy)ethyl]piperidin-4-yl}methyl)benzenesulfonamide], 488 ± 70 nM; for `CC1(C)Cc2cccc(OCCN3CCC(CNS(=O)(=O)c4cccc5ccccc45)CC3)c2O1` [Compound 18, 1-Naphthalene-N-({1-[2-(2,2-dimethyl-2,3-dihydrobenzofuran-7-yloxy)ethyl]piperidin-4-yl}methyl)sulfonamide], 366 ± 69 nM.
In the case of `CC1(C)Cc2cccc(OCCN3CCC(CNS(=O)(=O)c4cncc5ccccc45)CC3)c2O1` [Compound 19, 4-Isoquinoline-N-({1-[2-(2,2-dimethyl-2,3-dihydrobenzofuran-7-yloxy)ethyl]piperidin-4-yl}methyl)sulfonamide], the Ki was found to be 387 ± 58 nM.

Another series deals with Albino Swiss mice. In words: spontaneous locomotor activity. Type of series: in vivo. The following applies: ip, doses effective in the FST (6: 4, 8 mg/kg; mirtazapine: 16 mg/kg). The protocol: Adult male Albino Swiss mice (CD-1, 8 weeks old, 25–30 g: Jagiellonian University Medical College, Krakow, Poland) were used in the study. Animals were housed in groups of 8 in a transparent plastic cage (382 × 220 × 150 mm) at room temperature (22 ± 2 °C), on a 12 h light/dark cycle with ad libitum access to food and water. Mice were handled for one week before starting the experimental procedures. The separate groups of animals were used in the forced swim test and in the locomotor studies. All studies were approved by the Institutional Animal Care and Ethics Committee of the Jagiellonian University (approval no.: 80/2015).
Tested compounds were dissolved with 1% Tween 80. […] The control animals were given ip injections of the 2% DMSO in 1% Tween 80 (vehicle). The volume of vehicle or drug solutions was 10 mL/kg.
Locomotor activity was recorded with an Opto M3 multichannel activity monitor, photoresistor actometers connected to a counter for the recording of light-beam interruptions (MultiDevice Software v1.3, Columbus Instruments, Columbus, OH, USA). The mice, after being placed into the cages individually, had their activity evaluated between the 2nd and the 6th minute. The chosen time period corresponded with the time interval considered in the FST. Spontaneous locomotor activity was evaluated as the distance travelled plus the movements of climbing by animals.
`CN1CCN2c3ncccc3Cc3ccccc3C2C1` (centres unmarked) [Mirtazapine, reference compound]: the “influence on spontaneous locomotor activity (sedation)” value is “induced sedation”.

For another series, the target named is T1, human 5-HT7b receptor.
Test: not given
The note with it: Figure 1, earlier lead; read-out: Ki (5-HT7R); cited from earlier work.
For `CC(C)Oc1ccccc1OCCN1CCC(NS(=O)(=O)c2ccc(F)cc2)CC1` [PZ-971], the Ki is 21 nM.
